Assay results published in ChEMBL document CHEMBL1201862, “PubChem BioAssay data set” (2004).
The source made the active and inactive calls.

Assays:
[1] = biological target: T1, Apoptotic protease-activating factor 1 (Homo sapiens, UniProt O14727); format: functional
T1 sequence (O14727 whole entry): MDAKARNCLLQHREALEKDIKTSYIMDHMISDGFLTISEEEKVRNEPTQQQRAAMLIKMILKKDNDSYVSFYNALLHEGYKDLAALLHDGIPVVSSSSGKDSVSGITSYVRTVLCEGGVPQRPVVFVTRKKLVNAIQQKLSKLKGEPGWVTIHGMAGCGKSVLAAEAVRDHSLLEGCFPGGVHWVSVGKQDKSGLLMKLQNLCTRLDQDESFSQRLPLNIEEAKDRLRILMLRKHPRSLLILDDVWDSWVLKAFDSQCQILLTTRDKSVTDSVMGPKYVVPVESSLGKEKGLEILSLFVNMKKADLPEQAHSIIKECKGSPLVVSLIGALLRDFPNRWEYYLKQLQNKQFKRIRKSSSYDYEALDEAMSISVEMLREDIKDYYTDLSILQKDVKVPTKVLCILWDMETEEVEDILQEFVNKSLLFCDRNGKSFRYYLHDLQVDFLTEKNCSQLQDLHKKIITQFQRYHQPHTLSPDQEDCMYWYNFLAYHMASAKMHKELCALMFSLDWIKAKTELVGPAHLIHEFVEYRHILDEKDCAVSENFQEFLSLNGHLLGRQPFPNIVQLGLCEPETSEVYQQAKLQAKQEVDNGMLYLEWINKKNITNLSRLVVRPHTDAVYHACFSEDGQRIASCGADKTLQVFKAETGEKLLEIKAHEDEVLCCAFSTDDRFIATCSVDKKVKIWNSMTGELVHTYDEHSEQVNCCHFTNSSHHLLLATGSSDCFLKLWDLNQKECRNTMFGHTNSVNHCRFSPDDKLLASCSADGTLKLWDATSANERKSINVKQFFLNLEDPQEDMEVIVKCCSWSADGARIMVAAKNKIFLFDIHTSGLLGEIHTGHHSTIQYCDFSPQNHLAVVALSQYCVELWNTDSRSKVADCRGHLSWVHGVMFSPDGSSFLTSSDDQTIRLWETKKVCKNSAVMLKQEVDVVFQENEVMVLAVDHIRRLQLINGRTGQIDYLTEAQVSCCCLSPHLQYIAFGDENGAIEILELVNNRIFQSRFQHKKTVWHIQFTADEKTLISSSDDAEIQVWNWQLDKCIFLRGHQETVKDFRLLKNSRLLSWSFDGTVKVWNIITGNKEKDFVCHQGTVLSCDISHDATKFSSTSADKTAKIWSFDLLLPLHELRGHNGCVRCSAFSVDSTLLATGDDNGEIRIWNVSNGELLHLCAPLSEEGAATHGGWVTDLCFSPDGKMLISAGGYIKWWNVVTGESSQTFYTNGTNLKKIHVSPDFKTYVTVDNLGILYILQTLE

BJ [2] = experiment: cells; format: functional, cell-based; settings: Homo sapiens
BJ [3] = experiment: cytotoxicity toward Ras-transformed BJeLR fibroblasts, dose response, cell-based, alamar blue fluorescence, cherrypicked samples (AID 2631); format: functional; settings: Homo sapiens;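 further: confirmatory dose-response assay in RAS-dependent BJ fibroblasts engineered with TERT, LT and ST, with cytotoxicity read by fluorescence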
[4] = biological target: T2, Histone-lysine N-methyltransferase NSD2 (Homo sapiens, UniProt O96028); format: biochemical
T2 sequence (O96028 whole entry): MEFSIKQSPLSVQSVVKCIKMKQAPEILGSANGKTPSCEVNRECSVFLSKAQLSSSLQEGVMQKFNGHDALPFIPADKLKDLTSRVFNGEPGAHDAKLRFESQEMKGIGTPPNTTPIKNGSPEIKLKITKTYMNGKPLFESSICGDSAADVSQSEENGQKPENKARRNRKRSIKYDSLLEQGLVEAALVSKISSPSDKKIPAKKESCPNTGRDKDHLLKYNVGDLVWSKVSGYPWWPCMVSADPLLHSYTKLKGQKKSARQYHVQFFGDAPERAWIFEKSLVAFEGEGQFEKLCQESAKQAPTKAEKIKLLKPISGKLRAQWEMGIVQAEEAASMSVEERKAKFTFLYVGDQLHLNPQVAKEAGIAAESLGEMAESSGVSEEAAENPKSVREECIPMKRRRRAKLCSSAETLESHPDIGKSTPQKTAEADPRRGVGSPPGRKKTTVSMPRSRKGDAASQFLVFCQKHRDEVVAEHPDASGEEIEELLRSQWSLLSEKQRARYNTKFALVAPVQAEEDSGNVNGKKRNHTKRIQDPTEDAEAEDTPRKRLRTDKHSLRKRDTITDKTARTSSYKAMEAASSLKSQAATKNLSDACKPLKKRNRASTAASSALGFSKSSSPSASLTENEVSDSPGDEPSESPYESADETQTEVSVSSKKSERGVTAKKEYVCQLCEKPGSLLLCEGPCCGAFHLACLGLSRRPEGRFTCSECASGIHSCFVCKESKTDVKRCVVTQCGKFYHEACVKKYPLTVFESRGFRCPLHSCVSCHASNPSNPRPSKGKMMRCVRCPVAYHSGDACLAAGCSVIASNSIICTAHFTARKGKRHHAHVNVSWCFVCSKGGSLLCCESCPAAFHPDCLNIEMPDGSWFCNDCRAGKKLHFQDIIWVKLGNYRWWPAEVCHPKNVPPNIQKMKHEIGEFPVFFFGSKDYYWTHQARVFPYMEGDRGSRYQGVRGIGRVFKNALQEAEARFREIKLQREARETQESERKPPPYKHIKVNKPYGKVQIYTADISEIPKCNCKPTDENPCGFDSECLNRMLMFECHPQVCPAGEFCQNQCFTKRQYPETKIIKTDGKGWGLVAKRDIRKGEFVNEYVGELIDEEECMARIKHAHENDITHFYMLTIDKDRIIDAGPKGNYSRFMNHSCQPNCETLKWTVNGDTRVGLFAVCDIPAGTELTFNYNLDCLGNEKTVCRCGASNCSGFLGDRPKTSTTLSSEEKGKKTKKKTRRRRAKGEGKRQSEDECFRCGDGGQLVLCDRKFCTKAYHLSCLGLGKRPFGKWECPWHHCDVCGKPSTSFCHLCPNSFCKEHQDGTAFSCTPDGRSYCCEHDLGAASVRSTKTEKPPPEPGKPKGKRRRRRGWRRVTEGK

[5] = tested on: Streptococcus sp. 'group A'; experiment: growth inhibition of control SK(-) GAS strain, dose response, counter-screen for streptokinase expression inhibitor project, luminescence, kanamycin, BacTiterGlo, confirmation (AID 1900); format: functional, organism-based
[6] = growth suppression of beta-catenin-knockout colon cells, dose response, cell-based, HCT116, human colon tumor (AID 1045); format: functional;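 further: HCT116 colon tumor cells with beta catenin knocked out; cells exposed to compound for 60 hours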
[7] = growth suppression of PTEN-null colon cells, dose response, cell-based, HCT116 PTEN knockout (AID 1047); format: functional;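 further: HCT116 colon tumor cells with PTEN knocked out; cells exposed to compound for 60 hours before readout; potency for loss of cell viability measured by luminescence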
INS1 = experiment: beta cell apoptosis inhibitors, cytokine rescue, dose response, luminescence, retest (AID 449756); format: functional, cell-based; settings: Rattus norvegicus;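 further: cell death triggered by IL-1 beta plus TNF-alpha plus IFN-gamma mixture; protective hits raise ATP signal compared with cytokine alone wells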
[8] = biological target: Transitional endoplasmic reticulum ATPase (Homo sapiens, UniProt P55072); experiment: p97 ATPase inhibitors, dose response, biochemical (AID 1534)
Chain of Transitional endoplasmic reticulum ATPase (Homo sapiens, UniProt P55072) (P55072 whole entry): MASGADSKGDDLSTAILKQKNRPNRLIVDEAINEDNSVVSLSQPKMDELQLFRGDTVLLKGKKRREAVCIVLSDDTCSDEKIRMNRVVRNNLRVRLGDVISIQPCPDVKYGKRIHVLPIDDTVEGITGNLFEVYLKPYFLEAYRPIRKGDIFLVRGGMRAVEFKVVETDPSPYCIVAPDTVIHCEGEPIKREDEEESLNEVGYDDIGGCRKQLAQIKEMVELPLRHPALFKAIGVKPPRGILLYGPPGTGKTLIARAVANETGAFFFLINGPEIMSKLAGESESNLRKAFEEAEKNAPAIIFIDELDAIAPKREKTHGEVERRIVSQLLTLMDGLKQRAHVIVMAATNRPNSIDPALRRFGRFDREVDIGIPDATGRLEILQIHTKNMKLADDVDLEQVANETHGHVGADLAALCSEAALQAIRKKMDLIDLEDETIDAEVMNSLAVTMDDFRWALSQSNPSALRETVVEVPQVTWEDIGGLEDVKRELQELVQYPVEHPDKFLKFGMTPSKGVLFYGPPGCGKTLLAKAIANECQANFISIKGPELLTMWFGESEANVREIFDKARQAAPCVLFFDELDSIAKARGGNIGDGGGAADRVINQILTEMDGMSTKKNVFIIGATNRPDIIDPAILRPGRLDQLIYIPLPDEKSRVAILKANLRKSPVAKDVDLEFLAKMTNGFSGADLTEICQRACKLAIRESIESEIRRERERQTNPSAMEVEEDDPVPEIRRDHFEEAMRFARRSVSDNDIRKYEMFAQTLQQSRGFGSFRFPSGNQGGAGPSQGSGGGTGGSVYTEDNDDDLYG

[9] = biological target: Transitional endoplasmic reticulum ATPase (Homo sapiens, UniProt P55072, C522A); experiment: C522A mutant p97 ATPase inhibitors, dose response, counter-screen for p97 inhibitor project, biochemical, luminescence (AID 1544)
Chain of Transitional endoplasmic reticulum ATPase (Homo sapiens, UniProt P55072, C522A) (P55072 2-806 C522A limits assumed): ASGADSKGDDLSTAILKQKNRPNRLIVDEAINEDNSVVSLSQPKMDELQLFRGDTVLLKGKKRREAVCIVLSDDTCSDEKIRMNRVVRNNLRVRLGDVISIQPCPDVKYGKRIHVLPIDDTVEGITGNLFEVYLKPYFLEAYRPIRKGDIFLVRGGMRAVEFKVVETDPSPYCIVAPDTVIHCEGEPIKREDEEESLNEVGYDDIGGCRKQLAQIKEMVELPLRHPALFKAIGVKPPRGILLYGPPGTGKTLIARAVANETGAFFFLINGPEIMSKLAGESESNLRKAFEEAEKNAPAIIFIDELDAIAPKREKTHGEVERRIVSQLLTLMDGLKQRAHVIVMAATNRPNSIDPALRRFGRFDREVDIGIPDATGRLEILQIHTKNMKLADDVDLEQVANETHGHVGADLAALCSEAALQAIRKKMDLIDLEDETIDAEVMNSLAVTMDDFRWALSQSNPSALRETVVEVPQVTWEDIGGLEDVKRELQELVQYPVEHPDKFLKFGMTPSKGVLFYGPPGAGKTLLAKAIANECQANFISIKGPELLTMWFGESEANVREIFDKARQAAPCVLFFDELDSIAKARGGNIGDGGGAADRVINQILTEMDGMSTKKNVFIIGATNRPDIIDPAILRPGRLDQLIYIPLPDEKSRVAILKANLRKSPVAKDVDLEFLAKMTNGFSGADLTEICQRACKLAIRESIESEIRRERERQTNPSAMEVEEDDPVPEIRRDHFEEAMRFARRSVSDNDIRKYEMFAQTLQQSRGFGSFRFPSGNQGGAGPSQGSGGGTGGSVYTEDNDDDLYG

[10] = cytotoxicity toward NIH3T3 fibroblasts, dose response, counter-screen, cell-based, ATP luminescence, mouse fibroblasts (AID 2010); format: functional;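 further: cells exposed to compound for about 90 hours before reading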

COCCCNC(=O)c1ccc2c3c(onc13)-c1ccccc1C2=O
IC50 [1]: 15.7 µM (active)
EC50 (BJ [2]): > 150 µM (not active)
EC50 (BJ [3]): 4.11 µM (active)
AC50 [4]: > 20 µM (inactive)

CCOC(=O)C1=C(c2ccc(OC)cc2)C(=O)c2ccccc2C1=O
EC50 (BJ [3]): 0.605 µM (active)
EC50 [5]: 1.51 µM (active)
EC50 [6]: 2.33 µM (active)
EC50 [7]: 3.57 µM (active)
AC50 (INS1): 2.2 µM (active)

CCCCn1c(NC(=O)c2ccccc2Cl)c(C#N)c2nc3ccccc3nc21
IC50 [8]: > 50 µM (not active)
IC50 [1]: 13.7 µM (active)
AC50 [4]: 2.68 µM (active)
IC50 [9]: > 50 µM (not active)

O=C1C(=O)c2ccccc2-c2ccccc21 [9,10-PHENANTHRENEQUINONE]
IC50 [8]: > 50 µM (not active)
IC50 [1]: 0.549 µM (active)
EC50 (BJ [2]): 5.99 µM (inconclusive)
EC50 (BJ [3]): 2.74 µM (inconclusive)
EC50 [5]: 1.33 µM (active)
IC50 [9]: > 50 µM (not active)
AC50 (INS1): 1.01 µM (active)

O=C1c2cc(F)ccc2-n2c1nc1ccccc1c2=O
IC50 [1]: 3.8 µM (active)

CCc1ccc(OCC(=O)N/N=C2\CC(=O)c3ccccc32)cc1
IC50 [1]: 18.5 µM (active)
EC50 [6]: 11.6 µM (active)
EC50 [7]: 10.2 µM (active)

CCC(=O)OCCNc1cc(Sc2nccn2C)c2nonc2c1[N+](=O)[O-]
EC50 [10]: 3.62 µM (active)
EC50 [6]: 3.98 µM (active)
EC50 [7]: 4.83 µM (active)

O=C1C=C(N(CCO)Cc2ccccc2)c2ccccc2C1=O
EC50 [10]: 5.31 µM (active)
AC50 [4]: 1.2 µM (active)
